Test results taken from PubChem BioAssay AID1259407 (Chemical Carcinogenesis Research Information System (CCRIS), 2018).
Active and inactive are the calls of the source. The rule behind the calls is not given here.

Test system: CCRIS mutagenicity, Ames/micronucleus/aberration tests
Experiment: CCRIS mutagenicity studies
[1] = Test System: AMES SALMONELLA TYPHIMURIUM, Strain/Indicator: TA98, Metabolic Activation: HAMSTER, LIVER, S-9, AROCLOR 1254, Method: PREINCUBATION
[2] = Test System: AMES SALMONELLA TYPHIMURIUM, Strain/Indicator: TA98, Metabolic Activation: NONE, Method: PREINCUBATION
[3] = Test System: AMES SALMONELLA TYPHIMURIUM, Strain/Indicator: TA98, Metabolic Activation: NONE, Method: STANDARD PLATE
[4] = Test System: AMES SALMONELLA TYPHIMURIUM, Strain/Indicator: TA98, Metabolic Activation: RAT, LIVER, S-9, AROCLOR 1254, Method: PREINCUBATION
[5] = Test System: AMES SALMONELLA TYPHIMURIUM, Strain/Indicator: TA100, Metabolic Activation: HAMSTER, LIVER, S-9, AROCLOR 1254, Method: PREINCUBATION
[6] = Test System: AMES SALMONELLA TYPHIMURIUM, Strain/Indicator: TA100, Metabolic Activation: NONE, Method: PREINCUBATION
[7] = Test System: AMES SALMONELLA TYPHIMURIUM, Strain/Indicator: TA100, Metabolic Activation: NONE, Method: STANDARD PLATE
[8] = Test System: AMES SALMONELLA TYPHIMURIUM, Strain/Indicator: TA100, Metabolic Activation: RAT, LIVER, S-9, AROCLOR 1254 (10%), Method: PREINCUBATION
[9] = Test System: AMES SALMONELLA TYPHIMURIUM, Strain/Indicator: TA100, Metabolic Activation: RAT, LIVER, S-9, AROCLOR 1254, Method: PREINCUBATION
[10] = Test System: AMES SALMONELLA TYPHIMURIUM, Strain/Indicator: TA1535, Metabolic Activation: HAMSTER, LIVER, S-9, AROCLOR 1254 (10%), Method: PREINCUBATION
[11] = Test System: AMES SALMONELLA TYPHIMURIUM, Strain/Indicator: TA1535, Metabolic Activation: HAMSTER, LIVER, S-9, AROCLOR 1254, Method: PREINCUBATION
[12] = Test System: AMES SALMONELLA TYPHIMURIUM, Strain/Indicator: TA1535, Metabolic Activation: NONE, Method: PREINCUBATION
[13] = Test System: AMES SALMONELLA TYPHIMURIUM, Strain/Indicator: TA1535, Metabolic Activation: NONE, Method: STANDARD PLATE
[14] = Test System: AMES SALMONELLA TYPHIMURIUM, Strain/Indicator: TA1535, Metabolic Activation: RAT, LIVER, S-9, AROCLOR 1254 (10%), Method: PREINCUBATION
[15] = Test System: AMES SALMONELLA TYPHIMURIUM, Strain/Indicator: TA1535, Metabolic Activation: RAT, LIVER, S-9, AROCLOR 1254, Method: PREINCUBATION
[16] = Test System: AMES SALMONELLA TYPHIMURIUM, Strain/Indicator: TA1537, Metabolic Activation: HAMSTER, LIVER, S-9, AROCLOR 1254, Method: PREINCUBATION
[17] = Test System: AMES SALMONELLA TYPHIMURIUM, Strain/Indicator: TA1537, Metabolic Activation: NONE, Method: PREINCUBATION
[18] = Test System: AMES SALMONELLA TYPHIMURIUM, Strain/Indicator: TA1537, Metabolic Activation: NONE, Method: STANDARD PLATE
[19] = Test System: AMES SALMONELLA TYPHIMURIUM, Strain/Indicator: TA1537, Metabolic Activation: RAT, LIVER, S-9, AROCLOR 1254, Method: PREINCUBATION
[20] = Test System: MOUSE LYMPHOMA, Strain/Indicator: L5178Y (TK+/TK-), Metabolic Activation: NONE, Method: SUSPENSION/PLATE

Structure (SMILES) | mutagenic call [1] | mutagenic call [2] | mutagenic call [3] | mutagenic call [4] | mutagenic call [5] | mutagenic call [6] | mutagenic call [7] | mutagenic call [8] | mutagenic call [9] | mutagenic call [10] | mutagenic call [11] | mutagenic call [12] | mutagenic call [13] | mutagenic call [14] | mutagenic call [15] | mutagenic call [16] | mutagenic call [17] | mutagenic call [18] | mutagenic call [19] | mutagenic call [20] | further results
ClC(Br)Br | inactive; negative | inactive; negative | inactive; negative | inactive; negative | inactive; negative | inactive; negative | inactive; negative | inactive; negative | inactive; negative | inactive; negative | inactive; negative | inactive; negative | active; positive | inactive; negative | inactive; negative | inactive; negative | inactive; negative | active; positive | inactive; negative | active; positive | mutagenic call (End Point: IN VITRO CHROMOSOMAL ABERRATIONS, Test System: CHINESE HAMSTER LUNG FIBROBLAST CELLS (CHL/IU), Metabolic Activation: RAT, LIVER, S-9, PHENOBARBITAL AND 5,6-BENZOFLAVONE): inactive; negative; authors describe as weakly positive; mutagenic call (End Point: IN VITRO CHROMOSOMAL ABERRATIONS, Test System: CHO-LB CELLS, Metabolic Activation: NONE): inactive; negative; mutagenic call (End Point: IN VIVO MICRONUCLEUS, Test System: BONE MARROW POLYCHROMATIC ERYTHROCYTES, Species: MOUSE, Strain/Sex: DDY/MALE, Route: IP): inactive; negative; mutagenic call (Test System: AMES SALMONELLA TYPHIMURIUM, Strain/Indicator: RSJ100, Metabolic Activation: NONE, Method: STANDARD PLATE): active; positive; mutagenic call (Test System: AMES SALMONELLA TYPHIMURIUM, Strain/Indicator: TA98, Metabolic Activation: HAMSTER, LIVER, S-9, AROCLOR 1254 (10%), Method: PREINCUBATION): inactive; negative; mutagenic call (Test System: AMES SALMONELLA TYPHIMURIUM, Strain/Indicator: TA98, Metabolic Activation: RAT, LIVER, S-9, AROCLOR 1254 (10%), Method: PREINCUBATION): inactive; negative; mutagenic call (Test System: AMES SALMONELLA TYPHIMURIUM, Strain/Indicator: TA98, Metabolic Activation: RAT, LIVER, S-9, AROCLOR 1254, Method: STANDARD PLATE): active; positive; mutagenic call (Test System: AMES SALMONELLA TYPHIMURIUM, Strain/Indicator: TA100, Metabolic Activation: HAMSTER, LIVER, S-9, AROCLOR 1254 (10%), Method: PREINCUBATION): inactive; negative; mutagenic call (Test System: AMES SALMONELLA TYPHIMURIUM, Strain/Indicator: TA100, Metabolic Activation: NONE, Method: DESICCATOR): active; positive; mutagenic call (Test System: AMES SALMONELLA TYPHIMURIUM, Strain/Indicator: TA100, Metabolic Activation: NONE, Method: FLUCTUATION TEST): inactive; negative; mutagenic call (Test System: AMES SALMONELLA TYPHIMURIUM, Strain/Indicator: TA100, Metabolic Activation: RAT, LIVER, S-9, AROCLOR 1254, Method: FLUCTUATION TEST): inactive; negative; mutagenic call (Test System: AMES SALMONELLA TYPHIMURIUM, Strain/Indicator: TA100, Metabolic Activation: RAT, LIVER, S-9, AROCLOR 1254, Method: STANDARD PLATE): active; positive; mutagenic call (Test System: AMES SALMONELLA TYPHIMURIUM, Strain/Indicator: TA1535, Metabolic Activation: RAT, LIVER, S-9, AROCLOR 1254, Method: STANDARD PLATE): active; positive; mutagenic call (Test System: AMES SALMONELLA TYPHIMURIUM, Strain/Indicator: TA1537, Metabolic Activation: HAMSTER, LIVER, S-9, AROCLOR 1254 (10%), Method: PREINCUBATION): inactive; negative; mutagenic call (Test System: AMES SALMONELLA TYPHIMURIUM, Strain/Indicator: TA1537, Metabolic Activation: RAT, LIVER, S-9, AROCLOR 1254 (10%), Method: PREINCUBATION): inactive; negative; mutagenic call (Test System: AMES SALMONELLA TYPHIMURIUM, Strain/Indicator: TA1537, Metabolic Activation: RAT, LIVER, S-9, AROCLOR 1254, Method: STANDARD PLATE): active; positive; mutagenic call (Test System: MOUSE LYMPHOMA, Strain/Indicator: L5178Y (TK+/TK-), Metabolic Activation: NONE, Method: MICROWELL): inactive; negative; mutagenic call (Test System: MOUSE LYMPHOMA, Strain/Indicator: L5178Y (TK+/TK-), Metabolic Activation: S-9, Method: MICROWELL): active; positive; mutagenic call (Test System: UDS RAT HEPATOCYTES, Strain/Indicator: THY INCORP, Metabolic Activation: NONE, Method: AUTORADIOGRAPHY): inactive; negative
CCN(CCCl)CCCNc1c2ccccc2nc2c1ccc1cccnc12 |  |  | active; positive |  |  |  | active; positive |  |  |  |  |  | inactive; negative |  |  |  |  | active; positive |  |  | mutagenic call (Test System: AMES SALMONELLA TYPHIMURIUM, Strain/Indicator: TA1536, Metabolic Activation: NONE, Method: STANDARD PLATE): active; positive; mutagenic call (Test System: AMES SALMONELLA TYPHIMURIUM, Strain/Indicator: TA1538, Metabolic Activation: NONE, Method: STANDARD PLATE): active; positive
c1cc(OCC2CO2)cc(OCC2CO2)c1 (stereo unspecified) | inactive; negative | inactive; negative |  | inactive; negative | active; positive | active; positive |  | active; positive | active; positive | active; positive | active; positive | active; positive |  | active; positive | active; positive | inactive; negative | inactive; negative |  | inactive; negative | active; positive | mutagenic call (End Point: IN VITRO CHROMOSOMAL ABERRATIONS, Test System: CHO CELLS, Metabolic Activation: NONE): active; positive; mutagenic call (End Point: IN VITRO CHROMOSOMAL ABERRATIONS, Test System: CHO CELLS, Metabolic Activation: RAT, LIVER, S-9, AROCLOR 1254): active; positive; weak response; mutagenic call (Test System: MOUSE LYMPHOMA, Strain/Indicator: L5178Y (HPRT), Metabolic Activation: NONE, Method: SUSPENSION/PLATE): inactive; negative
CN(C)c1ccc(N=Nc2cccc(CCl)c2)cc1 |  |  |  |  |  |  |  |  |  |  |  |  |  |  |  |  |  |  |  |  | mutagenic call (Test System: AMES SALMONELLA TYPHIMURIUM, Strain/Indicator: TA98, Metabolic Activation: RAT, LIVER, S-9, POLYCHLORINATED BIPHENYLS, Method: PREINCUBATION): active; positive; mutagenic call (Test System: AMES SALMONELLA TYPHIMURIUM, Strain/Indicator: TA100, Metabolic Activation: RAT, LIVER, S-9, POLYCHLORINATED BIPHENYLS, Method: PREINCUBATION): active; positive
